Columns and labels:
Experiment in all cases: combination Emax (second highest fraction inhibited in the dose matrix, 72 h); higher = more inhibition; extreme values may be limits of the assay
[1] = tested on: HDQ-P1 (Breast Carcinoma)
Outline: (§1)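 Bliss excess equals the observed combination effect minus the expected value EA + EB − EA·EB, where EA and EB are the effects of each agent alone. Combination Emax is the second-highest inhibition within the matrix. Inhibition was scaled from CellTiter-Glo 2.0 luminescence, with 0 set by vehicle wells and 1 by blank wells, after 72 hours of two-drug dosing of cells plated in 1536-well plates.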

[2] = tested on: EVSA-T (Breast Carcinoma)
Outline: as §1

[3] = tested on: PANC-08-13 (Pancreatic Carcinoma)
Outline: as §1

[4] = tested on: CAMA-1 (Breast Carcinoma)
Outline: as §1

WIL2-NS (Non-Cancerous) = tested on: WIL2-NS (Non-Cancerous)
Outline: as §1

[5] = tested on: KYSE-180 (Esophageal Squamous Cell Carcinoma)
Outline: as §1

WM-115 (Melanoma) = tested on: WM-115 (Melanoma)
Outline: as §1

[6] = tested on: KCL-22 (Chronic Myelogenous Leukemia)
Outline: as §1

[7] = tested on: NCI-H1792 (Lung Adenocarcinoma)
Outline: as §1

[8] = tested on: KM12 (Colorectal Carcinoma)
Outline: as §1

[9] = tested on: K-562 (Chronic Myelogenous Leukemia)
Outline: as §1

CHP-212 (Neuroblastoma) = tested on: CHP-212 (Neuroblastoma)
Outline: as §1

[10] = tested on: P12-ICHIKAWA (T-Lymphoblastic Leukemia)
Outline: as §1

[11] = tested on: COLO-678 (Colorectal Carcinoma)
Outline: as §1

U251 (Low Grade Glioma) = tested on: U251 (Low Grade Glioma)
Outline: as §1

[12] = tested on: MKN28 (Gastric Carcinoma)
Outline: as §1

NCI-H2818 (Mesothelioma) = tested on: NCI-H2818 (Mesothelioma)
Outline: as §1

[13] = tested on: BL-41 (Burkitt's Lymphoma)
Outline: as §1

[14] = tested on: BFTC-905 (Bladder Carcinoma)
Outline: as §1

[15] = tested on: DND-41 (T-Lymphoblastic Leukemia)
Outline: as §1

| Structure (SMILES) | combination Emax [1] | combination Emax [2] | combination Emax [3] | combination Emax [4] | combination Emax (WIL2-NS (Non-Cancerous)) | combination Emax [5] | combination Emax (WM-115 (Melanoma)) | combination Emax [6] | combination Emax [7] | combination Emax [8] | combination Emax [9] | combination Emax (CHP-212 (Neuroblastoma)) | combination Emax [10] | combination Emax [11] | combination Emax (U251 (Low Grade Glioma)) | combination Emax [12] | combination Emax (NCI-H2818 (Mesothelioma)) | combination Emax [13] | combination Emax [14] | combination Emax [15] |
| --- | --- | --- | --- | --- | --- | --- | --- | --- | --- | --- | --- | --- | --- | --- | --- | --- | --- | --- | --- | --- |
| CC(=O)c1c(C)c2cnc(Nc3ccc(N4CCNCC4)cn3)nc2n(C2CCCC2)c1=O [Palbociclib] + Cc1c2c(nn1C)CSCc1cc(n(C)n1)CSc1cc(c3ccccc3c1)OCCCc1c(C(=O)O)n(C)c3c-2c(Cl)ccc13 [AZD5991] (first compound max 10 µM, 7x7, partner max 1 µM) | 0.263 | 0.967 | 0.221 | 0.408 | 0.737 | 0.638 | 0.293 | 0.673 | 0.571 | 0.752 | 0.132 | 0.882 | 0.83 | 0.351 | 0.297 | 0.133 | 0.367 | 0.998 | 0.474 | 0.51 |
| COc1nnc2ccc(N3CCC(c4ccc(OCCN5CCN(C)C(=O)[C@H]5C)cc4)CC3)nn12 [AZD5153] + CCN(CCO)CCCOc1ccc2c(Nc3cc(CC(=O)Nc4cccc(F)c4)[nH]n3)ncnc2c1 [AZD2811] (first compound max 1 µM, 7x7, partner max 1 µM) | 0.431 | 0.938 | 0.656 | 0.497 | 0.811 | 0.397 | 0.37 | 0.68 | 0.668 | 0.66 | 0.517 | 0.964 | 1 | 0.506 | 0.661 | 0.43 | 0.292 | 0.874 | 0.71 | 0.667 |
| CN(CCO)CC[C@H](CSc1ccccc1)Nc1ccc(S(=O)(=O)NC(=O)c2ccc(N3CCC([C@@H](O)c4ccccc4-c4ccc(Cl)cc4)CC3)cc2)cc1S(=O)(=O)C(F)(F)F [AZD4320] + Cc1cc2ncnn2cc1Nc1ncc2c(n1)n(C1CCOCC1)c(=O)n2C [AZD7648] (first compound max 1 µM, 7x7, partner max 10 µM) | 0.522 | 0.191 | 0.391 | 0.229 | 0.335 | 0.0754 | 0.489 | 0.462 | 0.287 | 0.226 | 0.17 | 0.379 | 1 | 0.105 | 0.118 | 0.153 | 0.364 | 0.203 | 0.117 | 1 |
| NC1(C(=O)N[C@@H](CCO)c2ccc(Cl)cc2)CCN(c2ncnc3[nH]ccc23)CC1 [Capivasertib] + CC(C)n1c(=O)n(C)c2cnc3cc(F)c(-c4ccc(OCCCN5CCCCC5)nc4)cc3c21 [AZD1390] (first compound max 10 µM, 7x7, partner max 0.3 µM) | 0.215 | 0.975 | 0.242 | 0.665 | 0.682 | 0.488 | 0.565 | 0.266 | 0.179 | 0.755 | 0.33 | 0.262 | 0.489 | 0.146 | 0.284 | 0.145 | 0.224 | 0.297 | 0.221 | 0.165 |
| Cn1cnc2c(F)c(Nc3ccc(Br)cc3Cl)c(C(=O)NOCCO)cc21 [Selumetinib] + CC(C)n1c(=O)n(C)c2cnc3cc(F)c(-c4ccc(OCCCN5CCCCC5)nc4)cc3c21 [AZD1390] (first compound max 10 µM, 7x7, partner max 0.3 µM) | 0.248 | 0.174 | 0.111 | 0.0892 | 0.252 | 0.0295 | 0.411 | 0.478 | 0.378 | 0.657 | 0.168 | 0.923 | 0.305 | 0.502 | 0.141 | 0.137 | 0.138 | 0.209 | 0.606 | 0.157 |
| Cn1cnc2c(F)c(Nc3ccc(Br)cc3Cl)c(C(=O)NOCCO)cc21 [Selumetinib] + CCN(CCO)CCCOc1ccc2c(Nc3cc(CC(=O)Nc4cccc(F)c4)[nH]n3)ncnc2c1 [AZD2811] (first compound max 10 µM, 7x7, partner max 1 µM) | 0.393 | 0.283 | 0.22 | 0.22 | 0.259 | 0.103 | 0.434 | 0.593 | 0.423 | 0.676 | 0.32 | 0.972 | 1 | 0.51 | 0.268 | 0.191 | 0.168 | 0.629 | 0.781 | 0.199 |
